Source: US11369589B2, “Modulator of indoleamine 2,3-dioxygenase, preparation method and use thereof” (NANJING CAREPHAR SHENGHUI PHARMACEUTICAL CO., LTD., priority 2018, dated 2022)

Key:
Format in all cases: in vitro ADME
[1] = In vitro plasma conversion experiment of target compounds (Embodiment 7.5); conditions: rat, 2 mg/mL (as Epacadostat equivalents)
Description: (§1) Mobile phase: acetonitrile (50% to 80%) and water gradient elution.
(§2) Flow rate: 1 mL/min at a column temperature of 25° C.
(§3) Detection wavelength: 254 nm at a sample size of 10 μL.
The target compounds were dissolved into a DMSO solvent. […] 20 μL of the solution was taken and added into 1.18 mL of fresh rat blank plasma, and incubation was carried out at 37° C. to obtain a sample.
(§4) 120 μL of the sample was precisely sucked at a specified time point each time. 120 μL of acetonitrile was added. High-speed vortex mixing was performed for 2 min. Centrifugation was performed at 10000 r/min for 15 min. Supernatant was taken and filtered by a 13 mm 0.45 μm filter membrane, and then determination could be performed.
(§5) Incubation was performed at 37° C. 120 μL of sample was taken at different time points respectively. Sample pretreatment was performed according to the method of 7.3. Determination was performed by an HPLC method. A peak area was recorded, and a drug concentration was calculated.
According to the method of 7.4, we performed in vitro plasma conversion experiment on the target compounds to test conversion rates of the compounds converted into the Epacadostat at different time points.

[2] = Original drug Epacadostat plasma stability test (Embodiment 7.4); conditions: rat plasma, 37° C.
Description: Liquid chromatograph: Waters 2489UV/Visible Detector, Waters 1525BinaryHPLC Pump.
as §1, §2, §3
(§6) Under the condition of no mobile phase interference, the Epacadostat retention time was about 20 min.
as §4
as §5, with “20 μL of DMSO solution (120 mg/mL) of Epacadostat was taken and added into 1.18 mL of fresh rat blank plasma. Incubation” for “Incubation”

[3] = Original drug Epacadostat plasma stability test (Embodiment 14, 6.4); conditions: rat plasma, 37° C.
Description: Liquid chromatograph: Waters 2489UV/Visible Detector, Waters 1525Binary HPLC Pump.
as §1, §2, §3, §6, §4
as §5, with “20 μL of DMSO solution (120 mg/mL) of Epacadostat was taken and added into 1.18 mL of fresh rat blank plasma. Incubation” for “Incubation”, “6.3.” for “7.3.”

Row | Compound | Conversion rate into Epacadostat ([1]; 0.5 h) | Conversion rate into Epacadostat ([1]; 1 h) | Conversion rate into Epacadostat ([1]; 2 h) | Conversion rate into Epacadostat ([1]; 3 h) | Conversion rate into Epacadostat ([1]; 6 h) | Conversion rate into Epacadostat ([1]; 12 h) | Epacadostat concentration in plasma ([2]; time 1 h) | Epacadostat concentration in plasma ([2]; time 3 h) | Epacadostat concentration in plasma ([2]; time 6 h) | Epacadostat concentration in plasma ([2]; time 24 h) | Stability in plasma (in words) ([2]; up to 24 h) | Epacadostat concentration in plasma ([3]; time 1 h) | Epacadostat concentration in plasma ([3]; time 3 h) | Epacadostat concentration in plasma ([3]; time 6 h) | Epacadostat concentration in plasma ([3]; time 24 h) | Stability in plasma (in words) ([3]; up to 24 h)
1 | CC(C)C(=O)O/N=C(\Nc1ccc(F)c(Br)c1)c1nonc1NCCNS(=O)(=O)N=Cc1cccs1 [II-1] | 33.7% | 56.3% | 77.2% | 87.2% | 93.8% | 100% | – | – | – | – | – | – | – | – | – | –
2 | NS(=O)(=O)NCCNc1nonc1C(=NO)Nc1ccc(F)c(Br)c1 [Epacadostat] | – | – | – | – | – | – | 1.22 mg/mL | 1.20 mg/mL | 1.24 mg/mL | 1.20 mg/mL | can stably exist in the plasma | 1.22 mg/mL | 1.20 mg/mL | 1.24 mg/mL | 1.20 mg/mL | can stably exist in the plasma
3 | CCCC(=O)O/N=C(\Nc1ccc(F)c(Br)c1)c1nonc1NCCNS(=O)(=O)N=Cc1ccc(N(C)C)cc1 [II-3] | 31.1% | 43.1% | 58.3% | 70.3% | 88.3% | 98.3% | – | – | – | – | – | – | – | – | – | –
4 | CCCCC(=O)O/N=C(\Nc1ccc(F)c(Br)c1)c1nonc1NCCNS(=O)(=O)N=Cc1ccc(Cl)s1 [II-4] | 47.2% | 49.0% | 51.6% | 75.2% | 89.6% | 100% | – | – | – | – | – | – | – | – | – | –
